In ChEMBL document CHEMBL1909046, “DrugMatrix in vitro pharmacology data” one finds IC50 and Ki data, which are given here for three compounds.

Chain of C-C chemokine receptor type 2 (P41597 whole entry): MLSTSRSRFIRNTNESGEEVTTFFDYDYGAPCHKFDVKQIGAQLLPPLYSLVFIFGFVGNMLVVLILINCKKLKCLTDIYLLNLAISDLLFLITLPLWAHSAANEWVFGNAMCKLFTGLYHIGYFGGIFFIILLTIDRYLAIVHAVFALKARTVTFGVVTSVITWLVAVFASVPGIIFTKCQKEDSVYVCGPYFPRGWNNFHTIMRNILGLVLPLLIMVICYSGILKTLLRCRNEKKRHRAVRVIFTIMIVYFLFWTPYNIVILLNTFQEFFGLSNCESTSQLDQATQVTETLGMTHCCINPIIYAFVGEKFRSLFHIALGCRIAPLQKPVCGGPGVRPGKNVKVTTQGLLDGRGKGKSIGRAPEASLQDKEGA

For one test, the target named is T1, Neuropeptide Y receptor type 1 (Homo sapiens, UniProt P25929). Note: in other assays of this panel Not Active means under 50% inhibition at 10 µM.
T1 sequence (P25929 whole entry): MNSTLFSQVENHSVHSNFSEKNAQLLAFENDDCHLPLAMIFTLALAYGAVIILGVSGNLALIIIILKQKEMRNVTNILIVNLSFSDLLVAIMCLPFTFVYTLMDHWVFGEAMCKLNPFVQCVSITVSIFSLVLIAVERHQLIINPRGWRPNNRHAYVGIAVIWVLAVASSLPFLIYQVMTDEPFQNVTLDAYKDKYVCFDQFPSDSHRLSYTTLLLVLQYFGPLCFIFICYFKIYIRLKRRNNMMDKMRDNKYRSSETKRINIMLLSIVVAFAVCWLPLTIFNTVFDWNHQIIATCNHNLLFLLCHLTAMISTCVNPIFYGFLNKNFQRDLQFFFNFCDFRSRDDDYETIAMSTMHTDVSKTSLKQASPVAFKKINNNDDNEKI
Experiment: not given
In kind it is cell membranes, Membrane. Particulars: sk-n-mc.
Turning to `CNC(=O)Oc1ccc2c(c1)[C@]1(C)CCN(C)[C@@H]1N2C` [PHYSOSTIGMINE], the IC50 entry is given as “Not Active”.
Still for that read-out and setting: the value for `CC1=Nc2ccc(Cl)cc2S(=O)(=O)N1` [DIAZOXIDE] was “Not Active”; that for `CC(C)(Oc1ccc(CCNC(=O)c2ccc(Cl)cc2)cc1)C(=O)O` [BEZAFIBRATE] was “Not Active”.

Another test has as its target cGMP-specific 3',5'-cyclic phosphodiesterase (Homo sapiens, UniProt O76074). The experiment in a line: DRUGMATRIX: Phosphodiesterase PDE5 enzyme inhibition (substrate: [3H]cGMP + cGMP). It is filed as tissue-based, Platelet. Conditions: platelet; Not Active = under 50% inhibition at 10 µM.
Turning to `CNC(=O)Oc1ccc2c(c1)[C@]1(C)CCN(C)[C@@H]1N2C` [PHYSOSTIGMINE], the IC50 result was “Not Active”.
For `CC1=Nc2ccc(Cl)cc2S(=O)(=O)N1` [DIAZOXIDE], the IC50 result is recorded as “Not Active”.
Still for that read-out and setting: the value for `CC(C)(Oc1ccc(CCNC(=O)c2ccc(Cl)cc2)cc1)C(=O)O` [BEZAFIBRATE] was “Not Active”.

Test system in a further test: not listed separately
The experiment in a line: DRUGMATRIX: ATPase, Na+/K+ enzyme inhibition (substrate: ATP). Particulars: Not Active = under 50% inhibition at 10 µM. In kind it is tissue-based, Sus scrofa, Heart.
On to `CNC(=O)Oc1ccc2c(c1)[C@]1(C)CCN(C)[C@@H]1N2C` [PHYSOSTIGMINE], for which the IC50 entry is “Not Active” and the Ki entry was “Not Active”.
As to `CC1=Nc2ccc(Cl)cc2S(=O)(=O)N1` [DIAZOXIDE], the IC50 entry is “Not Active” and the Ki result is “Not Active”.
As for `CC(C)(Oc1ccc(CCNC(=O)c2ccc(Cl)cc2)cc1)C(=O)O` [BEZAFIBRATE], the IC50 entry was “Not Active” and the Ki entry is “Not Active”.

Another test addresses T2, Leukotriene C4 synthase (Cavia porcellus, UniProt A6XA80).
T2 sequence (A6XA80 whole entry): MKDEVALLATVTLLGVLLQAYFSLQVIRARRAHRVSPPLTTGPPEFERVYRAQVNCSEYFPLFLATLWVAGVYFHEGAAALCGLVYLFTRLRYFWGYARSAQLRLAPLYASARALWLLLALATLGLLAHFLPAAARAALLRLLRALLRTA
Briefly: biochemical. In kind it is tissue-based, Lung.
Settings: not given
Consider `CNC(=O)Oc1ccc2c(c1)[C@]1(C)CCN(C)[C@@H]1N2C` [PHYSOSTIGMINE], for which the IC50 entry was “Not Active”.
Still for that read-out and setting: the value for `CC1=Nc2ccc(Cl)cc2S(=O)(=O)N1` [DIAZOXIDE] was “Not Active”; that for `CC(C)(Oc1ccc(CCNC(=O)c2ccc(Cl)cc2)cc1)C(=O)O` [BEZAFIBRATE] was “Not Active”.

Another test addresses T3, Neutrophil elastase (Homo sapiens, UniProt P08246).
T3 sequence (P08246 whole entry): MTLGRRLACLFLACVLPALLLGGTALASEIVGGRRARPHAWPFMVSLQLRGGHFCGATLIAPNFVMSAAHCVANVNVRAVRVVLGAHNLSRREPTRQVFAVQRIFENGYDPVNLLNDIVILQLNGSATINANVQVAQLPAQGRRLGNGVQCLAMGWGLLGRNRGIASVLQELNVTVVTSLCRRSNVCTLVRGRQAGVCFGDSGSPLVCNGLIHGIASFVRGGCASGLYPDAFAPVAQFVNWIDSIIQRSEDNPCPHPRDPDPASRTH
Experiment: not given
It is filed as tissue-based.
Settings: not given
As to `CNC(=O)Oc1ccc2c(c1)[C@]1(C)CCN(C)[C@@H]1N2C` [PHYSOSTIGMINE], the IC50 result was “Not Active”.
Still for that read-out and setting: the value for `CC1=Nc2ccc(Cl)cc2S(=O)(=O)N1` [DIAZOXIDE] was “Not Active”.
The same measure, in the same setting: the value for `CC(C)(Oc1ccc(CCNC(=O)c2ccc(Cl)cc2)cc1)C(=O)O` [BEZAFIBRATE] was “Not Active”.

The target in another test is Insulin receptor (Rattus norvegicus, UniProt P15127). Note: in other assays of this panel Not Active means under 50% inhibition at 10 µM.
Chain of Insulin receptor (P15127 27-759 limits assumed): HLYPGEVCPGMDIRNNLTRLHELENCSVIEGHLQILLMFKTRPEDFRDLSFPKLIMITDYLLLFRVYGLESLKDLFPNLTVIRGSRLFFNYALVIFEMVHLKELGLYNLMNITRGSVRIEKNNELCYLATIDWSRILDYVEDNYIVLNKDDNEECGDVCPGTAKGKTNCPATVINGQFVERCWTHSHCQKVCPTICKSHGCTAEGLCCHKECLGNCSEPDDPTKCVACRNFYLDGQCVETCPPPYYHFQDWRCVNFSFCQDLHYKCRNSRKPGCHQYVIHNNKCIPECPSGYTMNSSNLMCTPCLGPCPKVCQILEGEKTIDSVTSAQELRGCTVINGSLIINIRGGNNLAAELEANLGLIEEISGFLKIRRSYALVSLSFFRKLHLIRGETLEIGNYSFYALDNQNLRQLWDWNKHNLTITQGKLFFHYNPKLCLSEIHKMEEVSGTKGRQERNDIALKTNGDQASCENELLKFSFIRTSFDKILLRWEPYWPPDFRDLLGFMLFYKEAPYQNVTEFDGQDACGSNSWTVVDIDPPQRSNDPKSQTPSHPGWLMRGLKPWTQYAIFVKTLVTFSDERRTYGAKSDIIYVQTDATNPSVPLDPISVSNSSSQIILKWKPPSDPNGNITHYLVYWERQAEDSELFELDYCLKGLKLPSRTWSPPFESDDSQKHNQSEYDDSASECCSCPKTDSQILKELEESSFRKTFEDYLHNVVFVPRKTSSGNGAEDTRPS
Chain of Insulin receptor (P15127 764-1383 limits assumed): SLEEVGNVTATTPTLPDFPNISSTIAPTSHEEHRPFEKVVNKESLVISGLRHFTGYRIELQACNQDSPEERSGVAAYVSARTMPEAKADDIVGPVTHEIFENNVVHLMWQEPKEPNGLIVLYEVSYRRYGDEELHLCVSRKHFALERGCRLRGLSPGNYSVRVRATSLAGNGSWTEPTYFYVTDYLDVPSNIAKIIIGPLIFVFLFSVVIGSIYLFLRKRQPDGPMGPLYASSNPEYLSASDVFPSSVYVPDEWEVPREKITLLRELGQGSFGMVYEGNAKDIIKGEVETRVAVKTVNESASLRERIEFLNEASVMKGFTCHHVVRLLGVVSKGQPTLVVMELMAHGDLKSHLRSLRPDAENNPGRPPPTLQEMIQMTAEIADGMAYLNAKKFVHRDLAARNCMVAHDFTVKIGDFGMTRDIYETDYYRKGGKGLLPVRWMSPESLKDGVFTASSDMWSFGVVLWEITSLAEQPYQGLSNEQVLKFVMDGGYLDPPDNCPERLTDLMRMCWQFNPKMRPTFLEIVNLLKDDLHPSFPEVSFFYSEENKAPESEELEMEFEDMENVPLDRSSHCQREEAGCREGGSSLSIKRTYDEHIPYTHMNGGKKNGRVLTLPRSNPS
Experiment: not given
It is filed as cell membranes, Wistar, Liver, Membrane.
Settings: not given
With `CNC(=O)Oc1ccc2c(c1)[C@]1(C)CCN(C)[C@@H]1N2C` [PHYSOSTIGMINE], the IC50 result is on record as “Not Active”.
Still for that read-out and setting: the value for `CC1=Nc2ccc(Cl)cc2S(=O)(=O)N1` [DIAZOXIDE] was “Not Active”.
Still for that read-out and setting: the value for `CC(C)(Oc1ccc(CCNC(=O)c2ccc(Cl)cc2)cc1)C(=O)O` [BEZAFIBRATE] was “Not Active”.

The next test concerns the target T4, C-C chemokine receptor type 4 (Homo sapiens, UniProt P51679). Note: in other assays of this panel Not Active means under 50% inhibition at 10 µM.
T4 sequence (P51679 whole entry): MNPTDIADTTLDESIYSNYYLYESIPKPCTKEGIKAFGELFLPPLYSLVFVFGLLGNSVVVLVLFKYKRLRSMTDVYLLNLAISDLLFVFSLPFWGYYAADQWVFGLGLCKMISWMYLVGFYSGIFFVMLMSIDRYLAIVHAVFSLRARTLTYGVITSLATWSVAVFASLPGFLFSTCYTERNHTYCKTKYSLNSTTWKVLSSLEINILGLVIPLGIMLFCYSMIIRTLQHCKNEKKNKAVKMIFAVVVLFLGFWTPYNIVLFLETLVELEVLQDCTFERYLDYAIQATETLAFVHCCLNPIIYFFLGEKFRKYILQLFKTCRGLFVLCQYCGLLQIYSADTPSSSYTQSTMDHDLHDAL
Experiment: not given
In kind it is cell membranes, Membrane. Particulars: chem-1.
With `CNC(=O)Oc1ccc2c(c1)[C@]1(C)CCN(C)[C@@H]1N2C` [PHYSOSTIGMINE], the IC50 entry is “Not Active”.
On the same count and under the same terms, the same measure for `CC1=Nc2ccc(Cl)cc2S(=O)(=O)N1` [DIAZOXIDE]: “Not Active”; for `CC(C)(Oc1ccc(CCNC(=O)c2ccc(Cl)cc2)cc1)C(=O)O` [BEZAFIBRATE]: “Not Active”.

In another test the target is T5, Nitric oxide synthase, inducible (Mus musculus, UniProt P29477).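 Note: inhibition of iNOS enzyme activity measured with L-arginine as substrate; in other assays of this panel Not Active means under 50% inhibition at 10 µM.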
T5 sequence (P29477 whole entry): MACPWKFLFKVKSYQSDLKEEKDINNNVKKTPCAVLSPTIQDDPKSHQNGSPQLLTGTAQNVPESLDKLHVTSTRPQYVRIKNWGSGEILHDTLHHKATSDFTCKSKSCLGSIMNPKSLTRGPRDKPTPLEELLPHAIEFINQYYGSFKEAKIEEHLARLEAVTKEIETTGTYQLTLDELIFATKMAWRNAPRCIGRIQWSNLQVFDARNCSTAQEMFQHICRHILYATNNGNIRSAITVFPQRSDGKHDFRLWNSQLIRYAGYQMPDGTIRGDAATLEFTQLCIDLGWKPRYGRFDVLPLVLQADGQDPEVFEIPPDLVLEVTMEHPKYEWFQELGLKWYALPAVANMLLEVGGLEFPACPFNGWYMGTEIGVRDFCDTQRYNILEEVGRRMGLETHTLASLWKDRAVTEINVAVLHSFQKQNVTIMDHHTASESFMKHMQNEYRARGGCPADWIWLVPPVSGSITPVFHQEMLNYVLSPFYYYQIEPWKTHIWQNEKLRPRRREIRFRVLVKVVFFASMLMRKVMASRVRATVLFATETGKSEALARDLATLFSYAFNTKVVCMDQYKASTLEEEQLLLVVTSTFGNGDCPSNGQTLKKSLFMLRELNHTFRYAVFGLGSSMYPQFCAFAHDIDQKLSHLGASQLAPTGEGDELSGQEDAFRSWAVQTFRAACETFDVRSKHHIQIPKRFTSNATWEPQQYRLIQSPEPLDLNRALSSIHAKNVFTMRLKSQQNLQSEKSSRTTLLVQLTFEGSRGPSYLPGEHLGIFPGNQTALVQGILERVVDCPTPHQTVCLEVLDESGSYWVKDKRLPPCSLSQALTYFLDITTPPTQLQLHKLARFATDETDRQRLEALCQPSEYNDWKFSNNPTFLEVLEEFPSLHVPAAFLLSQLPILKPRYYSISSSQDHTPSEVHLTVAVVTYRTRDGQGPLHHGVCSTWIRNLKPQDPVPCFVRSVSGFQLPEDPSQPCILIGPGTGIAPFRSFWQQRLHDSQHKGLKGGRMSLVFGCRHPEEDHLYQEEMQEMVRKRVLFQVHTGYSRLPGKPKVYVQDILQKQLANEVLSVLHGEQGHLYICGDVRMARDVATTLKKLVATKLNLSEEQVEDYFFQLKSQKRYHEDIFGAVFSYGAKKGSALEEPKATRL
Experiment: not given
Settings: not given
Set-up: species or system Escherichia coli.
For the compound `CNC(=O)Oc1ccc2c(c1)[C@]1(C)CCN(C)[C@@H]1N2C` [PHYSOSTIGMINE], the IC50 entry is on record as “Not Active”.
As for `CC1=Nc2ccc(Cl)cc2S(=O)(=O)N1` [DIAZOXIDE], the IC50 result was “Not Active”.
As to `CC(C)(Oc1ccc(CCNC(=O)c2ccc(Cl)cc2)cc1)C(=O)O` [BEZAFIBRATE], the IC50 entry was “Not Active”.

Test system in the next test: not listed separately
Briefly: DRUGMATRIX: Phorbol Ester radioligand binding (ligand: [3H] PDBu). In kind it is cell membranes, Mus musculus, ICR, Brain, Membrane. Particulars: Not Active = under 50% inhibition at 10 µM.
As to `CNC(=O)Oc1ccc2c(c1)[C@]1(C)CCN(C)[C@@H]1N2C` [PHYSOSTIGMINE], the IC50 entry was “Not Active” and the Ki entry was “Not Active”.
As for `CC1=Nc2ccc(Cl)cc2S(=O)(=O)N1` [DIAZOXIDE], the IC50 entry was “Not Active” and the Ki entry is recorded as “Not Active”.
For `CC(C)(Oc1ccc(CCNC(=O)c2ccc(Cl)cc2)cc1)C(=O)O` [BEZAFIBRATE], the IC50 entry is “Not Active” and the Ki result is given as “Not Active”.

Test system in the next test: not listed separately
The experiment in a line: DRUGMATRIX: Glutamate, Kainate radioligand binding (ligand: [3H] Kainic acid). It is filed as cell membranes, Rattus norvegicus, Wistar, Brain, Membrane. Particulars: Not Active = under 50% inhibition at 10 µM.
On to `CNC(=O)Oc1ccc2c(c1)[C@]1(C)CCN(C)[C@@H]1N2C` [PHYSOSTIGMINE], for which the IC50 result is listed as “Not Active” and the Ki result is given as “Not Active”.
For the compound `CC1=Nc2ccc(Cl)cc2S(=O)(=O)N1` [DIAZOXIDE], the IC50 result is “Not Active” and the Ki result is “Not Active”.
Take `CC(C)(Oc1ccc(CCNC(=O)c2ccc(Cl)cc2)cc1)C(=O)O` [BEZAFIBRATE]: the IC50 entry is given as “Not Active” and the Ki entry is “Not Active”.

Test system in the next test: not listed separately
The experiment in a line: DRUGMATRIX: Glutamate, AMPA radioligand binding (ligand: [3H] AMPA). It is filed as cell membranes, Rattus norvegicus, Wistar, Cerebral cortex, Membrane. Conditions: Not Active = under 50% inhibition at 10 µM.
Take `CNC(=O)Oc1ccc2c(c1)[C@]1(C)CCN(C)[C@@H]1N2C` [PHYSOSTIGMINE]: the IC50 entry was “Not Active” and the Ki result was “Not Active”.
For the compound `CC1=Nc2ccc(Cl)cc2S(=O)(=O)N1` [DIAZOXIDE], the IC50 result was “Not Active” and the Ki result was “Not Active”.
For the compound `CC(C)(Oc1ccc(CCNC(=O)c2ccc(Cl)cc2)cc1)C(=O)O` [BEZAFIBRATE], the IC50 result is on record as “Not Active” and the Ki result is on record as “Not Active”.

The next test addresses C-C chemokine receptor type 2 (Homo sapiens, UniProt P41597).
Experiment: not given
In kind it is cell membranes, CHO-K1, Membrane. Particulars: cho-k1.
In the case of `CNC(=O)Oc1ccc2c(c1)[C@]1(C)CCN(C)[C@@H]1N2C` [PHYSOSTIGMINE], the IC50 entry is reported as “Not Active”.
Still for that read-out and setting: the same measure for `CC1=Nc2ccc(Cl)cc2S(=O)(=O)N1` [DIAZOXIDE]: “Not Active”; for `CC(C)(Oc1ccc(CCNC(=O)c2ccc(Cl)cc2)cc1)C(=O)O` [BEZAFIBRATE]: “Not Active”.
